Assay results: patent US9365576B2, “Pyrrolopyrrolidinone compounds” (Novartis AG, priority 2012, dated 2016)
pIC50: −log10 of the molar value.

Experiments:
Type in all cases: binding
[1] = molecular target: T1, human MDM2 protein (amino acids 2-188) (Homo sapiens (Human), UniProt Q00987); assay: TR-FRET assay, p53-MDM2 Assay 1; conditions: 1.25 nM MDM2-biotinylated, 10 nM Cy5-p53 peptide
Procedure: (§1) The inhibition of p53-MDM2 and p53-MDM4 interactions is measured by time resolved fluorescence energy transfer (TR-FRET). Fluorescence energy transfer (or Foerster resonance energy transfer) describes an energy transfer between donor and acceptor fluorescent molecules. For this assay, human MDM2 protein (amino acids 2-188) and human MDM4 protein (amino acids 2-185), tagged with a C-terminal biotin moiety, are used in combination with a Europium labeled streptavidin (Perkin Elmer, Inc., Waltham, Mass., USA) serving as the donor fluorophore. The p53 derived, Cy5 labeled peptide Cy5-TFSDLWKLL (p53 aa18-26) is the energy acceptor. Upon excitation of the donor molecule at 340 nm, binding interaction between MDM2 or MDM4 and the p53 peptide induces energy transfer and enhanced response at the acceptor emission wavelength at 665 nm. Disruption of the formation of the p53-MDM2 or p53-MDM4 complex due to an inhibitor molecule binding to the p53 binding site of MDM2 or MDM4 results in increased donor emission at 620 nm. The ratiometric FRET assay readout is calculated from the raw data of the two distinct fluorescence signals measured in time resolved mode (fluorescence 665 nm/fluorescence 620 nm×1000).
(§2) After addition of 1.25 nM MDM2-biotinylated or 2.5 nM MDM4-biotinylated (internal preparations), and 0.625 nM Europium labeled streptavidin (Perkin Elmer), the solution is pre-incubated for 15 minutes at room temperature, then 10 nM Cy5-p53 peptide (internal preparation) is added before an incubation at room temperature for 15 minutes prior to reading the plate. For measurement of samples, a Victor II microplate reader (Perkin Elmer) is used with the following settings: Excitation 340 nm, Emission Donor 620 nm and Emission Acceptor 665 nm. IC50 values are calculated by curve fitting using XLfit. If not specified, reagents are purchased from Sigma-Aldrich Chemie GmBH, Buchs, Switzerland.
(§3) This assay was used to evaluate compounds displaying inhibition of p53-MDM2 interaction and p53-MDM4 interaction at IC50s of 0.005 to 50 μM (p53-MDM2 Assay 1 and p53-MDM4 Assay 1, respectively). For selected compounds displaying IC50s between […] on MDM2, a slightly modified assay is used with the following adaptations: 0.1 nM MDM2, 0.1 nM Europium labeled streptavidin and Tecan genios Pro is used as a microplate reader for the fluorescence measurements (p53-MDM2 Assay 2).

[2] = molecular target: human MDM4 protein (amino acids 2-185) (Homo sapiens (Human), UniProt O15151); assay: TR-FRET assay, p53-MDM4 Assay 1; conditions: 2.5 nM MDM4-biotinylated, 10 nM Cy5-p53 peptide
Sequence of human MDM4 protein (amino acids 2-185) (O15151 2-185): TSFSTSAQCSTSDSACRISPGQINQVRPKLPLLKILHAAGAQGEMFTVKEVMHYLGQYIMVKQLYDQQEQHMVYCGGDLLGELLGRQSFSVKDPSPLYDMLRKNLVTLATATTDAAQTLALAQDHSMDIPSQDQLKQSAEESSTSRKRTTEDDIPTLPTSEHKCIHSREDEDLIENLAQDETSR
Procedure: as §1, §2, §3

[3] = molecular target: T1, human MDM2 protein (amino acids 2-188); assay: TR-FRET assay, p53-MDM2 Assay 2 (modified); conditions: TR-FRET; 0.1 nM MDM2, 0.1 nM Europium labeled streptavidin, Tecan genios Pro reader; read-out: IC50 p53-MDM2 Assay 2
Method in brief: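 IC50 values were curve-fitted from the time-resolved 665/620 nm emission ratio after 340 nm excitation. The assay combined 0.625 nM europium-streptavidin donor with 1.25 nM C-terminally biotinylated MDM2 2–188 (15 min, RT), followed by 15 min with 10 nM Cy5-labeled p53 18–26 acceptor peptide.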

T1 sequence (Q00987 2-188): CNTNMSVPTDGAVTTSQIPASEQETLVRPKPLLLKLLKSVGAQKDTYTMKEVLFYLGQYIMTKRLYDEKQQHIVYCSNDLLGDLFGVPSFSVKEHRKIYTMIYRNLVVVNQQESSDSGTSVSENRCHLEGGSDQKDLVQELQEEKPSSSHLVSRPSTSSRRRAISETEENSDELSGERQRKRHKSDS

| pIC50 [1] | pIC50 [2] | pIC50 [3] | SMILES |
| --- | --- | --- | --- |
| 8.02 | 4.56 |  | COc1ccccc1-c1cc2c(n1C(C)C)C(c1ccc(Cl)cc1C)N(c1cccc(Cl)c1F)C2=O (stereo not shown) [Example 1, 5-(3-Chloro-2-fluoro-phenyl)-6-(4-chloro-2-methyl-phenyl)-1-isopropyl-2-(2-methoxy-phenyl)-5,6-dihydro-1H-pyrrolo[3,4-b]pyrrol-4-one] |
| 8.54 | 5.54 | 9.12 | CNC(=O)c1ccc(OC)c(-c2cc3c(n2C(C)C)C(c2ccc(Cl)cc2C)N(c2cccc(Cl)c2F)C3=O)c1 (stereo not shown) [Example 2, 3-[5-(3-Chloro-2-fluoro-phenyl)-6-(4-chloro-2-methyl-phenyl)-1-isopropyl-4-oxo-1,4,5,6-tetrahydro-pyrrolo[3,4-b]pyrrol-2-yl]-4-methoxy-N-methyl-benzamide] |
| 8.22 | 4.27 |  | COc1ccc(F)cc1-c1cc2c(n1C(C)C)C(c1ccc(Cl)cc1C)N(c1cccc(Cl)c1F)C2=O (stereo not shown) [Example 3, 5-(3-Chloro-2-fluoro-phenyl)-6-(4-chloro-2-methyl-phenyl)-2-(5-fluoro-2-methoxy-phenyl)-1-isopropyl-5,6-dihydro-1H-pyrrolo[3,4-b]pyrrol-4-one] |
| 9.22 | 6.29 | 9.92 | CNC(=O)c1ccc(OC)c(-c2cc3c(n2C(C)C)[C@H](c2ccc(Cl)cc2C)N(c2cccc(Cl)c2F)C3=O)c1 [Example 7, 3-[(S)-5-(3-Chloro-2-fluoro-phenyl)-6-(4-chloro-2-methyl-phenyl)-1-isopropyl-4-oxo-1,4,5,6-tetrahydro-pyrrolo[3,4-b]pyrrol-2-yl]-4-methoxy-N-methyl-benzamide] |
| 9.22 | 5.40 | 9.53 | COc1ccccc1-c1cc2c(n1C(C)C)C(c1ccc(Cl)cc1)N(c1cc(Cl)ccc1C)C2=O (stereo not shown) [Example 9, 5-(5-Chloro-2-methyl-phenyl)-6-(4-chloro-phenyl)-1-isopropyl-2-(2-methoxy-phenyl)-5,6-dihydro-1H-pyrrolo[3,4-b]pyrrol-4-one] |
| 9.05 | 6.32 | 9.94 | CNC(=O)c1ccc(OC)c(-c2cc3c(n2C(C)C)C(c2ccc(Cl)cc2)N(c2cc(Cl)ccc2C)C3=O)c1 (stereo not shown) [Example 10, 3-[5-(5-Chloro-2-methyl-phenyl)-6-(4-chloro-phenyl)-1-isopropyl-4-oxo-1,4,5,6-tetrahydro-pyrrolo[3,4-b]pyrrol-2-yl]-4-methoxy-N-methyl-benzamide] |
| 9.30 | 6.58 | 10.03 | CNC(=O)c1ccc(OC)c(-c2cc3c(n2C(C)C)[C@H](c2ccc(Cl)cc2C)N(c2cc(Cl)ccc2C)C3=O)c1 [Example 32, 3-[(S)-5-(5-Chloro-2-methyl-phenyl)-6-(4-chloro-2-methyl-phenyl)-1-isopropyl-4-oxo-1,4,5,6-tetrahydro-pyrrolo[3,4-b]pyrrol-2-yl]-4-methoxy-N-methyl-benzamide] |
|  |  | 9.65 | COc1nc(N(C)C)ncc1-c1cc2c(n1C(C)C)C(c1ccc(C#N)cc1)N(c1c(F)c(C)nn1C)C2=O (stereo not shown) [Example 231, 4-(2-(2-(Dimethylamino)-4-methoxypyrimidin-5-yl)-5-(4-fluoro-1,3-dimethyl-1H-pyrazol-5-yl)-1-isopropyl-4-oxo-1,4,5,6-tetrahydropyrrolo[3,4-b]ppyrrol-6-yl)benzonitrile] |
|  |  | 10.16 | COc1nc(N(C)C)ncc1-c1cc2c(n1C(C)C)[C@H](c1ccc(C#N)cc1)N(c1cc(Cl)c(=O)n(C)c1)C2=O [Example 232, (S)-4-(5-(5-Chloro-1-methyl-6-oxo-1,6-dihydropyridin-3-yl)-2-(2-(dimethylamino)-4-methoxypyrimidin-5-yl)-1-isopropyl-4-oxo-1,4,5,6-tetrahydropyrrolo[3,4-b]pyrrol-6-yl)benzonitrile] |
|  |  | 7.22 | COc1nc(N(C)C)ncc1-c1cc2c(n1C(C)C)[C@@H](c1ccc(C#N)cc1)N(c1cc(Cl)c(=O)n(C)c1)C2=O [Example 233, (R)-4-(5-(5-Chloro-1-methyl-6-oxo-1,6-dihydropyridin-3-yl)-2-(2-(dimethylamino)-4-methoxypyrimidin-5-yl)-1-isopropyl-4-oxo-1,4,5,6-tetrahydropyrrolo[3,4-b]pyrrol-6-yl)benzonitrile] |
|  |  | 9.18 | COc1nc(N(C)C)ncc1-c1cc2c(n1C(C)C)C(c1ccc(Cl)cn1)N(c1cccc(Cl)c1F)C2=O (stereo not shown) [Example 234, 5-(3-Chloro-2-fluorophenyl)-6-(5-chloropyridin-2-yl)-2-(2-(dimethylamino)-4-methoxypyrimidin-5-yl)-1-isopropyl-5,6-dihydropyrrolo[3,4-b]pyrrol-4(1H)-one] |
|  |  | 8.15 | COc1ncc(-c2cc3c(n2C(C)C)C(c2ccc(Cl)cn2)N(c2cc(Cl)ccc2C)C3=O)c(OC)n1 (stereo not shown) [Example 235, 5-(5-Chloro-2-methylphenyl)-6-(5-chloropyridin-2-yl)-2-(2,4-dimethoxypyrimidin-5-yl)-1-isopropyl-1-5,6-dihydropyrrolo[3,4-b]pyrrol-4(1H)-one] |
|  |  | 8.53 | COc1ncncc1-c1cc2c(n1C(C)C)C(c1ccc(C#N)cc1)N(c1cc(Cl)c(=O)n(C)c1)C2=O (stereo not shown) [Example 236, 4-(5-(5-Chloro-1-methyl-6-oxo-1,6-dihydropyridin-3-yl)-1-isopropyl-2-(4-methoxypyrimidin-5-yl)-4-oxo-1,4,5,6-tetrahydropyrrolo[3,4-b]pyrrol-6-yl)benzonitrile] |
|  |  | 9.97 | COc1ncc(-c2cc3c(n2C(C)C)[C@H](c2ccc(C#N)c(F)c2)N(c2cc(Cl)c(=O)n(C)c2)C3=O)c(OC)n1 [Example 237, (S)-4-(5-(5-Chloro-1-methyl-6-oxo-1,6-dihydropyridin-3-yl)-2-(2,4-dimethoxypyrimidin-5-yl)-1-isopropyl-4-oxo-1,4,5,6-tetrahydropyrrolo[3,4-b]pyrrol-6-yl)-2-fluorobenzonitrile] |
|  |  | 6.90 | COc1ncc(-c2cc3c(n2C(C)C)[C@@H](c2ccc(C#N)c(F)c2)N(c2cc(Cl)c(=O)n(C)c2)C3=O)c(OC)n1 [Example 238, (R)-4-(5-(5-Chloro-1-methyl-6-oxo-1,6-dihydropyridin-3-yl)-2-(2,4-dimethoxypyrimidin-5-yl)-1-isopropyl-4-oxo-1,4,5,6-tetrahydropyrrolo[3,4-b]pyrrol-6-yl)-2-fluorobenzonitrile] |
|  |  | 8.94 | COc1ncc(-c2cc3c(n2C(C)C)C(c2ccc(Cl)cc2)N(c2cc(C)cn(C)c2=O)C3=O)c(OC)n1 (stereo not shown) [Example 239, 6-(4-Chlorophenyl-1)-2-(2,4-dimethoxypyrimidin-5-yl)-5-(1,5-dimethyl-2-oxo-1,2-dihydropyridin-3-yl)-1-isopropyl-5,6-dihydropyrrolo[3,4-b]pyrrol-4(1H)-one] |
| 7.48 | 4.11 |  | COc1ncc(-c2cc3c(n2C2CC2)C(c2ccc(Cl)cc2)N(c2cc(C)c(=O)n(C)c2)C3=O)c(OC)n1 (stereo not shown) [Example 240, 6-(4-Chlorophenyl-1)-1-cyclopropyl-2-(2,4-dimethoxypyrimidin-5-yl)-5-(1,5-dimethyl-6-oxo-1,6-dihydropyridin-3-yl)-5,6-dihydropyrrolo[3,4-b]pyrrol-4(1H)-one] |
| 5.41 | < 4.00 |  | COc1ncc(-c2cc3c(n2C2CC2)C(c2ccc(Cl)cc2)N(c2cc(C)c(=O)n(C)c2)C3=O)cn1 (stereo not shown) [Example 241, 6-(4-Chlorophenyl)-1-cyclopropyl-5-(1,5-dimethyl-6-oxo-1,6-dihydropyridin-3-yl)-2-(2-methoxypyrimidin-5-yl)-5,6-dihydropyrrolo[3,4-b]pyrrol-4(1H)-one] |
| 5.69 | < 4.00 |  | Cc1cc(N2C(=O)c3cc(-c4ccn(C)c(=O)c4)n(C4CC4)c3C2c2ccc(Cl)cc2)cn(C)c1=O (stereo not shown) [Example 242, 6-(4-Chlorophenyl)-1-cyclopropyl-5-(1,5-dimethyl-6-oxo-1,6-dihydropyridin-3-yl)-2-(1-methyl-2-oxo-1,2-dihydropyridin-4-yl)-5,6-dihydropyrrolo[3,4-b]pyrrol-4(1H)-one] |
